The record followed here is DBAASP.

Molecules are shown by their SMILES. Converted amounts (≈) assume the structure as drawn.

Test in all cases: ≥ marks a high value that may be exact or a test limit, other limits are often not marked, values filed in µg/mL are converted to µM
For experiment [1], the system named is Acinetobacter baumannii.
The test system of experiment [2] is Enterococcus faecalis.
For experiment [3], the system named is Enterococcus faecium.
Experiment [4] has as its system Escherichia coli.
Experiment [5] has as its system Klebsiella pneumoniae.
Experiment [6] concerns Pseudomonas aeruginosa.
The subject of experiment [7] is Serratia marcescens.
In experiment [8] the test system is Staphylococcus aureus MR.
In experiment [9] the test system is Staphylococcus aureus.
Experiment [10] concerns Stenotrophomonas maltophilia.
Experiment [11] relates to Streptococcus pneumoniae.
Experiment [12] deals with Candida albicans ATCC 90028.
For experiment [13], the system named is Escherichia coli ATCC 25726.
The subject of experiment [14] is Klebsiella pneumoniae ATCC 700603.
The subject of experiment [15] is Proteus mirabilis ATCC 25933.
In experiment [16] the test system is Pseudomonas aeruginosa ATCC 27853.
For experiment [17], the system named is Staphylococcus aureus ATCC 25923.
Experiment [18] relates to Staphylococcus aureus ATCC 29213.
Experiment [19] relates to Staphylococcus epidermidis RP62A/1.
In experiment [20] the test system is Staphylococcus epidermidis RP62A.
Experiment [21] deals with Bacillus subtilis ATCC 62037.
Experiment [22] relates to Candida albicans ATCC 10231.
The subject of experiment [23] is Cryptococcus neoformans ATCC 34881.
The subject of experiment [24] is Escherichia coli ATCC 27325.
Experiment [25] has as its system Pseudomonas putida ATCC 17426.
The subject of experiment [26] is Saccharomyces cerevisiae ATCC 44774.
For experiment [27], the system named is Salmonella enterica subsp. enterica serovar Enteritidis ATCC 13076.
The test system of experiment [28] is Staphylococcus aureus ATCC 15752.
Experiment [29] concerns Streptococcus mutans ATCC 25175.
For experiment [30], the system named is Corynebacterium xerosis C875.
Experiment [31] relates to Escherichia coli DC2.
Experiment [32] deals with Escherichia coli UB1005.
Experiment [33] concerns Staphylococcus epidermidis C621.

What is called MIC is the lowest concentration found to suppress growth. A low value points to greater potency. On to `CC[C@H](C)[C@H](NC(=O)[C@@H](NC(=O)[C@H](CCCCN)NC(=O)[C@H](CS)NC(=O)[C@H](CCCCN)NC(=O)[C@H](CCCN=C(N)N)NC(=O)[C@H](CC(C)C)NC(=O)[C@@H](NC(=O)[C@H](CCCCN)NC(=O)[C@@H](NC(=O)[C@H](CC(C)C)NC(=O)[C@H](C)NC(=O)[C@@H](NC(=O)[C@H](Cc1ccccc1)NC(=O)CNC(=O)[C@@H]1CCCN1C(=O)[C@@H]1CCCN1C(=O)[C@@H](NC(=O)[C@H](CCC(=O)O)NC(=O)[C@H](CCCN=C(N)N)NC(=O)[C@H](CC(N)=O)NC(=O)[C@@H](N)CCC(=O)O)C(C)C)[C@@H](C)O)[C@@H](C)CC)[C@@H](C)O)[C@@H](C)CC)C(=O)O` [ENREVPPGFTALIKTLRKCKII], for which the MIC is 12.7 µM (≈ 32 µg/mL) in [1]; 4.47 µM (≈ 11.3 µg/mL) in experiment [2]; 12.7 µM (≈ 32 µg/mL) in experiment [3]; 3.16 µM (≈ 7.99 µg/mL) in experiment [4]; 4.47 µM (≈ 11.3 µg/mL) in experiment [5]; 12.7 µM (≈ 32 µg/mL) in [6]. Moreover, the MIC in [7] came to 8.95 µM (≈ 22.6 µg/mL); in experiment [8], 4.47 µM (≈ 11.3 µg/mL); in [9], 4.47 µM (≈ 11.3 µg/mL); in [10], 12.7 µM (≈ 32 µg/mL); in [11] it was 4.47 µM (≈ 11.3 µg/mL).

Regarding `CC[C@H](C)[C@H](N)C(=O)N[C@@H](CCCCN)C(=O)N[C@@H](CC(C)C)C(=O)N[C@@H](CO)C(=O)N[C@@H](CCCCN)C(=O)N[C@@H](CCCCN)C(=O)N[C@H](C(=O)N[C@@H](CCCCN)C(=O)N[C@@H](CC(=O)O)C(=O)N[C@@H](CC(N)=O)C(=O)N[C@@H](CC(C)C)C(=O)N[C@@H](CCCCN)C(=O)N[C@@H](CCCCN)C(=O)N[C@H](C(=O)N[C@@H](CC(C)C)C(=O)N[C@@H](CCCCN)C(=O)NCC(=O)N[C@@H](C)C(=O)N[C@H](C(=O)N[C@@H](CCCCN)C(=O)NCC(=O)N[C@@H](C)C(=O)N[C@H](C(=O)N[C@@H](C)C(=O)N[C@H](C(=O)N[C@@H](C)C(=O)N[C@@H](CCCCN)C(=O)N[C@@H](CCSC)C(=O)N[C@H](C(N)=O)C(C)C)C(C)C)[C@@H](C)CC)[C@@H](C)CC)C(C)C)[C@@H](C)O` [IKLSKKTKDNLKKVLKGAIKGAIAVAKMV], the MIC is 3.1 µM (≈ 9.59 µg/mL) in experiment [1]; at least 100 µM in experiment [12]; 3.1 µM (≈ 9.59 µg/mL) in experiment [13]; 6.25 µM (≈ 19.3 µg/mL) in experiment [14]; at least 100 µM in experiment [15]; 12.5 µM (≈ 38.7 µg/mL) in experiment [16]. Also, the MIC in experiment [17] stood at 3.1 µM (≈ 9.59 µg/mL); in experiment [18], 3.1 µM (≈ 9.59 µg/mL); in experiment [19], 0.8 µM (≈ 2.48 µg/mL); in experiment [20] it was 1.6 µM (≈ 4.95 µg/mL); in experiment [10], 1.6 µM (≈ 4.95 µg/mL).

As to `CC(C)[C@H](NC(=O)[C@H](CCCCN)NC(=O)CNC(=O)CNC(=O)[C@H](CCC(N)=O)NC(=O)[C@H](CCCCN)NC(=O)CNC(=O)[C@H](CCCN=C(N)N)NC(=O)CNC(=O)[C@@H](N)CCCCN)C(=O)N[C@@H](CCCN=C(N)N)C(=O)N[C@@H](C)C(=O)N[C@@H](CCCCN)C(=O)N[C@@H](C)C(=O)N[C@@H](CCCCN)C(=O)N[C@H](C(=O)N[C@@H](CCCN=C(N)N)C(=O)O)[C@@H](C)O` [KGRGKQGGKVRAKAKTR], the MIC in [21], in [22], in [23], in experiment [24], in [25] and in experiment [26] was 0.548 µM (≈ 1 µg/mL) in each case. Also, the MIC amounted to 2.19 µM (≈ 4 µg/mL) in experiment [27], 2.19 µM (≈ 4 µg/mL) in experiment [28] and 1.1 µM (≈ 2 µg/mL) in experiment [29].

For the compound `C[C@H](NC(=O)[C@H](C)NC(=O)[C@H](C)NC(=O)[C@H](Cc1c[nH]c2ccccc12)NC(=O)[C@H](C)NC(=O)[C@H](C)NC(=O)[C@H](C)NC(=O)[C@H](CCCCN)NC(=O)[C@@H](N)CCCCN)C(=O)N[C@@H](C)C(=O)N[C@@H](C)C(=O)N[C@@H](Cc1c[nH]c2ccccc12)C(=O)N[C@@H](C)C(=O)N[C@@H](C)C(=O)N[C@@H](Cc1c[nH]c2ccccc12)C(=O)N[C@@H](C)C(=O)N[C@@H](C)C(=O)N[C@@H](Cc1c[nH]c2ccccc12)C(=O)N[C@@H](C)C(=O)N[C@@H](C)C(=O)N[C@@H](C)C(=O)N[C@@H](CCCCN)C(=O)N[C@@H](CCCCN)C(=O)N[C@@H](CCCCN)C(=O)N[C@@H](CCCCN)C(N)=O` [KKAAAWAAAAAWAAWAAWAAAKKKK], the MIC turned out to be 0.25 µM (≈ 0.649 µg/mL) in experiment [30], 8 µM (≈ 20.8 µg/mL) in experiment [31], 16 µM (≈ 41.6 µg/mL) in [32] and 0.25 µM (≈ 0.649 µg/mL) in experiment [33].

`CC[C@H](C)[C@H](NC(=O)[C@@H]1CCCN1C(=O)[C@H](Cc1c[nH]c2ccccc12)NC(=O)[C@H](CCC(N)=O)NC(=O)[C@H](CCCCN)NC(=O)[C@H](CC(C)C)NC(=O)[C@H](CC(C)C)NC(=O)[C@@H](N)CCCCN)C(=O)NCC(=O)N[C@@H](CCCCN)C(=O)N[C@@H](CC(C)C)C(=O)N[C@@H](CC(C)C)C(=O)N[C@@H](CCCCN)C(=O)N[C@@H](CCCCN)C(=O)N[C@@H](CC(C)C)C(=O)N[C@@H](CC(C)C)C(=O)N[C@@H](CCCCN)C(=O)N[C@@H](CCCCN)C(=O)N[C@@H](CC(C)C)C(=O)N[C@@H](CC(C)C)C(=O)N[C@@H](CCCCN)C(=O)O` [KLLKQWPIGKLLKKLLKKLLK]: the MIC came out at 0.395 µM (≈ 1 µg/mL) in experiment [21]; 0.395 µM (≈ 1 µg/mL) in experiment [22]; 0.395 µM (≈ 1 µg/mL) in experiment [23]; 0.198 µM (≈ 0.5 µg/mL) in experiment [24]; 0.395 µM (≈ 1 µg/mL) in experiment [25]; 0.395 µM (≈ 1 µg/mL) in experiment [26]. For the same compound, the figures for the MIC in experiment [27], in [28] and in experiment [29] were 0.395 µM (≈ 1 µg/mL), 0.198 µM (≈ 0.5 µg/mL) and 0.395 µM (≈ 1 µg/mL), respectively.
